Laboratory results reported in article PMC12373499 (Nature Metabolism, 2025).
Where a SMILES comes first, the peptide text is derived from it. [ ]: non-standard residue; d: D form. The star is where a group is joined. X1 = CN1C(=CC=CC=CC2=[N+](CCCCCC(=O)NCCN3C(=O)CC(*)C3=O)c3ccccc3C2(C)C)C(C)(C)c2ccccc21; Aib = CC(C)(N)C(=O)O

Legend:
[1] = molecular target: T1, Nluc–GIPR (hGIPR) (Homo sapiens, UniProt P48546); assay: NanoBRET saturation binding assay, HEK293T cells
T1 construct: expressed in transfected cells; host or cells: HEK293T cells, transient expression
T1 sequence (P48546 22-466): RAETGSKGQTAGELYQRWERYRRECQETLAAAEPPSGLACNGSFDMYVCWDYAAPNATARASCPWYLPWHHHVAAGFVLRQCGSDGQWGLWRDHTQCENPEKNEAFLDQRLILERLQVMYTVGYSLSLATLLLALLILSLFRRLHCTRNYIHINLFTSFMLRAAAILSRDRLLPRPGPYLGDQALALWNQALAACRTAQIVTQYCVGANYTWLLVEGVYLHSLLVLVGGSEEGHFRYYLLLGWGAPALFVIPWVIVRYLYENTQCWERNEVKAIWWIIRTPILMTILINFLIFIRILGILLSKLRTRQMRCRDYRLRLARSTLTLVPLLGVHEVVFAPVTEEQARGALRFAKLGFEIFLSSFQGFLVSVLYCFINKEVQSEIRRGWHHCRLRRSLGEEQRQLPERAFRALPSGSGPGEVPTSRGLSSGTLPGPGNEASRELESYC
Description: (§1) HEK293T cells (RRID:CVCL_0063) were cultured in DMEM/F12 GlutaMAX (ThermoFisher), supplemented with 10% FBS and 1% antibiotic-antimycotic solution and cultured at 37 °C, 5% CO2. HEK293T cells were authenticated at source using STR profiling. […] Media was then removed and the cells were incubated in PBS supplemented with 0.1% BSA and 0.01% NanoGlo (Promega). […] Plates were read using a PheraSTAR microplate reader, using the NanoBRET filter module. BRET ratios (λacceptor/λdonor) were calculated, and saturation data fit using the ‘One Site – Specific Binding’ equation of GraphPad Prism 10. Competition binding was fit using the ‘One Site – Fit Ki’ equation.

[2] = molecular target: T2, Nluc–GLP1R (hGLP1R) (Homo sapiens, UniProt P43220); assay: NanoBRET saturation binding assay, HEK293T cells
T2 construct: expressed in transfected cells; host or cells: HEK293T cells, transient expression
Description: as §1

[3] = test system: MIN6-CB4 β cells; assay: MIN6-CB4 cell fluorescent probe labelling, colocalization; type: cell-based
Description: MIN6-CB4 cells were generated and phenotyped, as previously described. Cells were grown to 70% confluency in MIN6 media (DMEM High Glucose supplemented with 15% FBS, 71 μM 2-mercaptoethanol, 2 mM glutamine, 100 units ml^−1 penicillin, 100 μg ml^−1 streptomycin). Cells were then seeded in 100 μl MIN6 media per well, on a glass-bottomed 96-well imaging plate previously coated with poly-L-lysine 0.01%.
(§2) Probe labelling was analysed using corrected total cell fluorescence, which is integrated density − (area of selected cell × mean fluorescence of background readings)[52],[53]. Colocalization was determined using Manders’ coefficient, which calculates the proportion of pixels in one channel that also show intensity from both channels. Full width at half maximum was used to analyse labelling patterns at the membrane versus cytoplasm. All analyses were performed in ImageJ (NIH), with brightness and contrast linearly adjusted across the entire image for presentation purposes and applied equally between all states under examination.

[4] = test system: SC-islets; assay: Labelling of iPS cell-derived islet-like structures (SC-islets); type: cell-based, human; conditions: n = 12 SC-islets from two differentiations
Description: For immunostaining, labelled islets were washed three times with PBS, then incubated with 2–4% formalin for 15 min at room temperature (16–25 °C). Islets were again washed three times with PBS, then incubated in permeabilizing blocking buffer for 1 h at room temperature before incubation with primary antibody overnight at 4 °C. The following day, islets were incubated with secondary antibody for 2 h at room temperature before mounting onto microscope slides with […] HardSet with DAPI or Everbrite Hardset. Primary and secondary antibodies are listed in Supplementary Table 5.
Human iPS cells (ALSTEM, iPS11) were maintained on iPS cell-qualified Matrigel (Corning, 354277) in mTeSR+ media (StemCell Technologies, 05826). ALSTEM iPS11 cells were authenticated at source by testing for expression of OCT4 and TRA-1-60, as well as alkaline phosphatase activity. Differentiation to islet-like structures (SC-islets) was carried out in a suspension-based, magnetic CELLSPIN bioreactor system ([…]). Differentiation media was changed daily by letting spheres settle by gravity for 3–10 min. Most of the supernatant was removed by aspiration; fresh media was added and bioreactors were placed back on the stirrer system. SC-islet differentiation was based on published protocols[35],[49]
as §2

[5] = One site -- Specific binding, fit of all pooled points
[6] = daLUXendin660 (tirz Cy5 500nM) vs LUXendin551 (100nM), image 2022.05.06 1-1
[7] = daLUXendin660 (tirz Cy5 500nM) vs LUXendin551 (100nM), image 2022.05.06 1-2
[8] = daLUXendin660 (tirz Cy5 500nM) vs LUXendin551 (100nM), image 2022.05.06 1-3
[9] = daLUXendin660 (tirz Cy5 500nM) vs LUXendin551 (100nM), image 2022.05.06 1-4
[10] = daLUXendin660 (tirz Cy5 500nM) vs LUXendin551 (100nM), image 2022.05.06 2-1
[11] = daLUXendin660 (tirz Cy5 500nM) vs LUXendin551 (100nM), image 2022.05.06 2-2
[12] = daLUXendin660 (tirz Cy5 500nM) vs LUXendin551 (100nM), image 2022.05.06 2-3
[13] = daLUXendin660 (tirz Cy5 500nM) vs LUXendin551 (100nM), image 2022.05.06 2-4
[14] = daLUXendin660 (tirz Cy5 500nM) vs LUXendin551 (100nM), image 2022.05.12 1-1
[15] = daLUXendin660 (tirz Cy5 500nM) vs LUXendin551 (100nM), image 2022.05.12 1-2
[16] = daLUXendin660 (tirz Cy5 500nM) vs LUXendin551 (100nM), image 2022.05.12 1-3
[17] = daLUXendin660 (tirz Cy5 500nM) vs LUXendin551 (100nM), image 2022.05.12 1-4
[18] = daLUXendin660 (tirz Cy5 500nM) vs LUXendin551 (100nM), image 2022.05.12 2-1
[19] = daLUXendin660 (tirz Cy5 500nM) vs LUXendin551 (100nM), image 2022.05.12 2-2
[20] = daLUXendin660 (tirz Cy5 500nM) vs LUXendin551 (100nM), image 2022.05.12 2-3
[21] = daLUXendin660 (tirz Cy5 500nM) vs LUXendin551 (100nM), image 2022.05.12 2-4
[22] = daLUXendin660 (tirz Cy5 500nM) vs sGIP549 (JB2228 100nM), image 2022.05.06 1-1
[23] = daLUXendin660 (tirz Cy5 500nM) vs sGIP549 (JB2228 100nM), image 2022.05.06 1-2
[24] = daLUXendin660 (tirz Cy5 500nM) vs sGIP549 (JB2228 100nM), image 2022.05.06 1-3
[25] = daLUXendin660 (tirz Cy5 500nM) vs sGIP549 (JB2228 100nM), image 2022.05.06 1-4
[26] = daLUXendin660 (tirz Cy5 500nM) vs sGIP549 (JB2228 100nM), image 2022.05.06 2-1
[27] = daLUXendin660 (tirz Cy5 500nM) vs sGIP549 (JB2228 100nM), image 2022.05.06 2-2
[28] = daLUXendin660 (tirz Cy5 500nM) vs sGIP549 (JB2228 100nM), image 2022.05.06 2-3
[29] = daLUXendin660 (tirz Cy5 500nM) vs sGIP549 (JB2228 100nM), image 2022.05.06 2-4
[30] = daLUXendin660 (tirz cy5 500nM) vs sGIP549 (JB2228 100nM), image 2022.05.12 1-1
[31] = daLUXendin660 (tirz cy5 500nM) vs sGIP549 (JB2228 100nM), image 2022.05.12 1-2
[32] = daLUXendin660 (tirz cy5 500nM) vs sGIP549 (JB2228 100nM), image 2022.05.12 1-3
[33] = daLUXendin660 (tirz cy5 500nM) vs sGIP549 (JB2228 100nM), image 2022.05.12 1-4
[34] = daLUXendin660 (tirz cy5 500nM) vs sGIP549 (JB2228 100nM), image 2022.05.12 2-1
[35] = daLUXendin660 (tirz cy5 500nM) vs sGIP549 (JB2228 100nM), image 2022.05.12 2-2
[36] = daLUXendin660 (tirz cy5 500nM) vs sGIP549 (JB2228 100nM), image 2022.05.12 2-3
[37] = daLUXendin660 (tirz cy5 500nM) vs sGIP549 (JB2228 100nM), image 2022.05.12 2-4

T2 sequence (P43220 24-463): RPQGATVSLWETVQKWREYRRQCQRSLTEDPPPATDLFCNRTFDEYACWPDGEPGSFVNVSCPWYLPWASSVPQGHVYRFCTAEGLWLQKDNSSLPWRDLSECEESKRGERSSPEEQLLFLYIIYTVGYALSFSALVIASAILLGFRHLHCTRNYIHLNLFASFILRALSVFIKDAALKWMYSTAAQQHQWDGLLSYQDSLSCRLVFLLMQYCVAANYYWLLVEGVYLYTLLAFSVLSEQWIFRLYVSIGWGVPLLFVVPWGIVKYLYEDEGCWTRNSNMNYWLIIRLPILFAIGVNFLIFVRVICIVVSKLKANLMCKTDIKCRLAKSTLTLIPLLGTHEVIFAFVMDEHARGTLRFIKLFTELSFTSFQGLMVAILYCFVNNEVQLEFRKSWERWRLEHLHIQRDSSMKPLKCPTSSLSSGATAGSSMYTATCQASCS

CC[C@H](C)[C@H](NC(=O)[C@H](CC(C)C)NC(=O)[C@H](Cc1c[nH]c2ccccc12)NC(=O)[C@H](CCC(N)=O)NC(=O)[C@@H](NC(=O)[C@H](Cc1ccccc1)NC(=O)[C@H](C)NC(=O)[C@H](CCCCN)NC(=O)[C@H](CCC(N)=O)NC(=O)[C@H](C)NC(=O)[C@@H](NC(=O)[C@H](CCCCN)NC(=O)[C@H](CC(=O)O)NC(=O)[C@H](CC(C)C)NC(=O)C(C)(C)NC(=O)[C@@H](NC(=O)[C@H](CO)NC(=O)[C@H](Cc1ccc(O)cc1)NC(=O)[C@H](CC(=O)O)NC(=O)[C@H](CO)NC(=O)[C@@H](NC(=O)[C@H](Cc1ccccc1)NC(=O)[C@@H](NC(=O)CNC(=O)[C@H](CCC(=O)O)NC(=O)C(C)(C)NC(=O)[C@@H](N)Cc1ccc(O)cc1)[C@@H](C)O)[C@@H](C)O)[C@@H](C)CC)[C@@H](C)CC)C(C)C)C(=O)N[C@@H](C)C(=O)NCC(=O)NCC(=O)N1CCC[C@H]1C(=O)N[C@@H](CO)C(=O)N[C@@H](CO)C(=O)NCC(=O)N[C@@H](C)C(=O)N1CCC[C@H]1C(=O)N1CCC[C@H]1C(=O)N1CCC[C@H]1C(=O)N[C@@H](CSC1CC(=O)N(CCNC(=O)CCCCC[N+]2=C(C=CC=CC=C3N(C)c4ccccc4C3(C)C)C(C)(C)c3ccccc32)C1=O)C(N)=O (some centres unmarked) [daLUXendin660] (H-Y[Aib]EGTFTSDYSI[Aib]LDKIAQKAFVQWLIAGGPSSGAPPPC(X1)-NH2)
Bmax best-fit (nM), hGIPR ([1]; Nluc-tagged hGIPR, NanoBRET saturation, n = 3 independent repeats): 0.0080 nM
Bmax, best-fit value, GIPR [1, 5]: 0.01181
Bmax best-fit (nM), hGLP1R ([2]; Nluc-tagged hGLP1R, NanoBRET saturation, n = 3 independent repeats): 0.0140 nM
Bmax, best-fit value, GLP1R [2, 5]: 0.0163
Manders' R [3, 6]: 0.82
Pearson's [3, 6]: 0.663
Manders' R [3, 7]: 0.763
Pearson's [3, 7]: 0.555
Manders' R [3, 8]: 0.866
Pearson's [3, 8]: 0.756
Manders' R [3, 9]: 0.82
Pearson's [3, 9]: 0.61
Manders' R [3, 10]: 0.849
Pearson's [3, 10]: 0.778
Manders' R [3, 11]: 0.803
Pearson's [3, 11]: 0.595
Manders' R [3, 12]: 0.811
Pearson's [3, 12]: 0.656
Manders' R [3, 13]: 0.83
Pearson's [3, 13]: 0.66
Manders' R [3, 14]: 0.861
Pearson's [3, 14]: 0.826
Manders' R [3, 15]: 0.847
Pearson's [3, 15]: 0.812
Manders' R [3, 16]: 0.799
Pearson's [3, 16]: 0.723
Manders' R [3, 17]: 0.766
Pearson's [3, 17]: 0.713
Manders' R [3, 18]: 0.8
Pearson's [3, 18]: 0.745
Manders' R [3, 19]: 0.809
Pearson's [3, 19]: 0.769
Manders' R [3, 20]: 0.825
Pearson's [3, 20]: 0.795
Manders' R [3, 21]: 0.894
Pearson's [3, 21]: 0.914
Manders' R [3, 22]: 0.9
Pearson's [3, 22]: 0.838
Manders' R [3, 23]: 0.901
Pearson's [3, 23]: 0.809
Manders' R [3, 24]: 0.886
Pearson's [3, 24]: 0.756
Manders' R [3, 25]: 0.894
Pearson's [3, 25]: 0.818
Manders' R [3, 26]: 0.899
Pearson's [3, 26]: 0.824
Manders' R [3, 27]: 0.894
Pearson's [3, 27]: 0.796
Manders' R [3, 28]: 0.901
Pearson's [3, 28]: 0.822
Manders' R [3, 29]: 0.878
Pearson's [3, 29]: 0.769
Manders' R [3, 30]: 0.862
Pearson's [3, 30]: 0.834
Manders' R [3, 31]: 0.735
Pearson's [3, 31]: 0.645
Manders' R [3, 32]: 0.775
Pearson's [3, 32]: 0.722
Manders' R [3, 33]: 0.833
Pearson's [3, 33]: 0.821
Manders' R [3, 34]: 0.823
Pearson's [3, 34]: 0.764
Manders' R [3, 35]: 0.748
Pearson's [3, 35]: 0.736
Manders' R [3, 36]: 0.968
Pearson's [3, 36]: 0.975
Manders' R [3, 37]: 0.784
Pearson's [3, 37]: 0.683
corrected total cell fluorescence, α cells ([4]; GCG+ cells): 2.30 × 10^5 ± 1.59 × 10^5 AU
corrected total cell fluorescence, β cells ([4]; INS+ cells): 3.60 × 10^5 ± 2.58 × 10^5 AU
corrected total cell fluorescence, δ cells ([4]; SST+ cells): 2.16 × 10^5 ± 1.46 × 10^5 AU
